Data as given in ChEMBL document CHEMBL3779828, “Discovery of the Aryl-phospho-indole IDX899, a Highly Potent Anti-HIV Non-nucleoside Reverse Transcriptase Inhibitor” (J Med Chem, 2016).
≈ marks a conversion by molar mass, not a printed value.

What was measured:
[1] = system: Human immunodeficiency virus 1; experiment: Antiviral activity against HIV1 harboring reverse transcriptase K103N mutant infected in primary MT4 cells assessed as inhibition of virus-induced cytopathogenicity after 4 days by MTS assay; type: functional, organism-based; settings: Human immunodeficiency virus 1, MT4, 96 h
[2] = system: Human immunodeficiency virus 1; experiment: Antiviral activity against HIV1 harboring reverse transcriptase Y181C mutant infected in primary MT4 cells assessed as inhibition of virus-induced cytopathogenicity after 4 days by MTS assay; type: functional, organism-based; settings: Human immunodeficiency virus 1, MT4, 96 h
[3] = Antiviral activity against HIV1 BH10 harboring wild type reverse transcriptase infected in primary MT4 cells assessed as inhibition of virus-induced cytopathogenicity after 4 days by MTS assay; type: functional, cell-based, Human immunodeficiency virus type 1 BH10; settings: Human immunodeficiency virus 1, MT4, 96 h
[4] = system: Human immunodeficiency virus 1; experiment: Antiviral activity against HIV1 harboring reverse transcriptase Y181C/K103N double mutant infected in primary MT4 cells assessed as inhibition of virus-induced cytopathogenicity after 4 days by MTS assay; type: functional, organism-based; settings: Human immunodeficiency virus 1, MT4, 96 h
[5] = Aqueous solubility of the compound at pH 7; type: physicochemical; settings: aqueous medium
[6] = Selectivity ratio of EC50 for HIV1 harboring reverse transcriptase Y181C/K103N double mutant to EC50 for HIV1 BH10 harboring wild type reverse transcriptase; type: functional

Row | SMILES | EC50 [1] [nM] | EC50 [2] [nM] | EC50 [3] [nM] | EC50 [4] [nM] | solubility [5] [µM] | Ratio EC50 [6]
1 | COP(=O)(c1cccc(C(C)C)c1)c1c(C(N)=O)[nH]c2ccc(Cl)cc12 (stereo not given) | 1.6 | 8.4 | 0.5 | 92.6 | 0.8 (≈ 0.313 µg/mL) | 
2 | COP(=O)(c1cc(C)cc(OCC#N)c1)c1c(C(N)=O)[nH]c2ccc(Cl)cc12 (stereo not given) | 1.8 | 8.7 | 0.08 | 111 |  | > 1000
3 | COP(=O)(c1cc(C)cc(Br)c1)c1c(C(N)=O)[nH]c2ccc(Cl)cc12 (stereo not given) | 25 | 6 | 3 | 368 |  | 
4 | COP(=O)(c1cc(C)cc(/C=C/C#N)c1)c1c(C(N)=O)[nH]c2ccc(Cl)cc12 (single isomer, unassigned; form 2) | 824 | 377 | 190 | > 1250 |  | 
5 | COP(=O)(c1cc(C(F)(F)F)cc(C(F)(F)F)c1)c1c(C(N)=O)[nH]c2ccc(Cl)cc12 (stereo not given) | 947 | 527 | 24.6 | > 1000 |  | 
6 | COP(=O)(c1cccc(-n2cccn2)c1)c1c(C(N)=O)[nH]c2ccc(Cl)cc12 (stereo not given) | 102 | 59 | 4.5 | > 1000 |  | 
7 | COc1cc(C)cc(P(=O)(OC)c2c(C(N)=O)[nH]c3ccc(Cl)cc23)c1 (stereo not given) | 23 | 9 | 0.4 | 663 |  | 
8 | COP(=O)(c1cc(C)cc(C#N)c1)c1c(C(N)=O)[nH]c2ccc(Cl)cc12 (stereo not given) | 18.4 | 3.8 | 1 | 162 |  | 
9 | COP(=O)(c1cc(C)cc(/C=C/C#N)c1)c1c(C(N)=O)[nH]c2ccc(Cl)cc12 (racemic) | 3 | 3 | 2.9 | 16.6 |  | 
10 | COP(=O)(c1ccc(C)c(C)c1)c1c(C(N)=O)[nH]c2ccc(Cl)cc12 (stereo not given) | 35 | 22.9 | 0.2 | 792 |  | 
11 | COP(=O)(c1c(C(N)=O)[nH]c2ccc(Cl)cc12)C1CCCCC1 (stereo not given) | 101 | 219 | 2.5 | > 1000 |  | 
12 | COP(=O)(c1cc(F)cc(F)c1)c1c(C(N)=O)[nH]c2ccc(Cl)cc12 (stereo not given) | 25.5 | 6.5 | 0.7 | 642 |  | 
